The source of these data is paper PMC7594025, “Synthesis, Docking, 3-D-Qsar, and Biological Assays of Novel Indole Derivatives Targeting Serotonin Transporter, Dopamine D2 Receptor, and Mao-A Enzyme: In the Pursuit for Potential Multitarget Directed Ligands” (Molecules, 2020).

Where two headings read alike, the source gives them in different places.

Data set [1] addresses T1, D2 receptor (Homo sapiens, UniProt P14416).
T1 construct: purchased Perkin-Elmer (Boston, MA, USA) RBHD2CM400UA; host or cells: CHO-K1 clonal cell line
Put plainly: D2 receptor competitive binding assay, [3H]-methylspiperone, membranes from CHO-K1 clonal cell line overexpressing D2 receptor. The note with it: for Ki: 0.5 nM [3H]-methylspiperone, 2 h at 27 °C, mean ± SEM of three experiments, each in triplicate. The procedure: To determine the binding of all compounds at D2 receptor, competitive binding assays were performed according to provider indications with some modifications. […] Radioactivity was counted as described before.

For data set [2], the target named is T2, rat MAO-A (Rattus norvegicus, UniProt P21396).
T2 construct: using a crude rat brain mitochondrial suspension as a source of enzyme; from tissue; host or cells: rat brain (crude mitochondrial suspension)
T2 sequence (P21396 1-526): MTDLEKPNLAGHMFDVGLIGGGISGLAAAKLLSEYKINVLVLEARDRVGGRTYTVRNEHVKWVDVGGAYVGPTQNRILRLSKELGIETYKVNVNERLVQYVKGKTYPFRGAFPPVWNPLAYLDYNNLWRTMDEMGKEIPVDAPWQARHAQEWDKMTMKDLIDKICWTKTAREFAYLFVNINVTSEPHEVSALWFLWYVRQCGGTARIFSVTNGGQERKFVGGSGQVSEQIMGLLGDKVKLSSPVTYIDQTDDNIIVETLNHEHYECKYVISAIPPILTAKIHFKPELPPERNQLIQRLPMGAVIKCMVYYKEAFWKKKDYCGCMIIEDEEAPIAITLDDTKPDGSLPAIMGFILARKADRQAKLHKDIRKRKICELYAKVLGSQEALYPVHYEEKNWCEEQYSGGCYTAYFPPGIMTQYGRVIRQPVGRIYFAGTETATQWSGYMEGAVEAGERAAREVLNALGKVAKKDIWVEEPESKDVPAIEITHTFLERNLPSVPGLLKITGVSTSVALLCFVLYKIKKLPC
The experiment in a line: MAO-A inhibition, crude rat brain mitochondrial suspension, serotonin substrate, HPLC-ED. Format: biochemical. The note with it: 100 µM compound; serotonin 100 µM as substrate. The procedure: The effects of the compounds on rat MAO-A activity were studied following a previously reported methodology, using a crude rat brain mitochondrial suspension as a source of enzyme. Serotonin (100 µM) was used as the selective substrate for MAO-A. This compound and its metabolite were detected by HPLC with electrochemical detection. As an exploratory evaluation, the percentage of MAO-A inhibition in the presence of 100 µM of the different compounds was determined, with the idea of evaluating in detail those compounds showing an inhibitory activity in the range of 70–100%.

The target in data set [3] is T3, SERT (Homo sapiens, UniProt P31645).
T3 construct: purchased Perkin-Elmer (Boston, MA, USA) RBHSTM400UA; host or cells: HEK-293 clonal cell line
Put plainly: SERT competitive binding assay, [3H]-paroxetine, membranes from HEK-293 clonal cell line overexpressing SERT. The procedure:
To determine the binding of all compounds at SERT, competitive binding assays were performed according to previously reported procedures with some modifications. […] Control curve was performed with fluoxetine in the same experimental conditions. Non-specific binding was determined with 10 µM fluoxetine.
The IC50 and Ki values correspond to the results of three independent experiments, each in triplicate. All data are expressed as the mean ± SEM.

Setting [4] is: 2 nM [3H]-paroxetine, 1 h at 27 °C, mean ± SEM of three experiments, each in triplicate, read-out: Ki SERT.
The mark [5] stands for this setting: SERT, experimental values used for CoMFA/CoMSIA (Table S3), read-out: Exp. pKi (converted).

By melting point is commonly meant the temperature of the solid-liquid transition. What is called inhibition is the share of the control response that was lost under treatment. A lower inhibition goes with a response near the control.

T1 sequence (P14416 whole entry): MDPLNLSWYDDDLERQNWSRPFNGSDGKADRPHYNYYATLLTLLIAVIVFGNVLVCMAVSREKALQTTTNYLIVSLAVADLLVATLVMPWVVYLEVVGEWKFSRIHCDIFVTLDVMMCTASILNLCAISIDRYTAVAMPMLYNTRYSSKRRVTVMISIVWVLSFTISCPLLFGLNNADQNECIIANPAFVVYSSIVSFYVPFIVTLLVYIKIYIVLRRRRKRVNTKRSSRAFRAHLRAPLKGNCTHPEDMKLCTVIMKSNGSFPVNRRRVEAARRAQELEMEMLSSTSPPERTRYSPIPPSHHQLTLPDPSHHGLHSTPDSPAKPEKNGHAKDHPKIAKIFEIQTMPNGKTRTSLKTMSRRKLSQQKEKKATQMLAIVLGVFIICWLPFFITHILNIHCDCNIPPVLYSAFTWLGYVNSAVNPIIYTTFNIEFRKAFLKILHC
T3 sequence (P31645 whole entry): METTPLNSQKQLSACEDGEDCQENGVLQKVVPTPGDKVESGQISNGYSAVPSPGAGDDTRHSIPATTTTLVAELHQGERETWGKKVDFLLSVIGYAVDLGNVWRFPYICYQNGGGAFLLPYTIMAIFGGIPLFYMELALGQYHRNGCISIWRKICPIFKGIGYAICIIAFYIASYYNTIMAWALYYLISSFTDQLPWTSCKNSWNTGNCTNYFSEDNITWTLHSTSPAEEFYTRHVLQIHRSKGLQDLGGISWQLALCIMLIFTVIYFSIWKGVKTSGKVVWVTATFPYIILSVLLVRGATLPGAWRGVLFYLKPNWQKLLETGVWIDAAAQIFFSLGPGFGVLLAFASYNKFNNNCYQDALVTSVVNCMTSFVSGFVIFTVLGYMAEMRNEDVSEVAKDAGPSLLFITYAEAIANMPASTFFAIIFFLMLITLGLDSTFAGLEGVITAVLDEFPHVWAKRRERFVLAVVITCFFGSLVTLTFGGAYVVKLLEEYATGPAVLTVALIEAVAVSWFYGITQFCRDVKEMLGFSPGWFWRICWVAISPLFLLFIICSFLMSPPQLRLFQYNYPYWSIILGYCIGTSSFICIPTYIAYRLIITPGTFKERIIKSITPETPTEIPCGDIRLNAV

Turning to `O=C(CN1CCN(CCCc2c[nH]c3ccccc23)CC1)N1CCOc2ccc(Br)cc21` [Compound 7e, 1-(6-Bromo-2,3-dihydro-benzo[b][1,4]oxazin-4-yl)-2-{4-[3-(1H-3-indolyl)-propyl]-1-piperazinyl} ethanamide], the melting point fell in the range of 132.7 to 134.1 °C. The compound also showed a Ki in data set [1] of 910 ± 263 nM. This compound also registered an inhibition at 100 µM in data set [2] of 38%. Further, the Ki in data set [3] (setting [4]) came to 36.6 ± 0.55 nM.
Regarding `O=C(CN1CCN(CCCc2c[nH]c3ccc(Br)cc23)CC1)Nc1ccc(F)c(C(=O)NCCN2CCOCC2)c1` [Compound 13g, 2-Fluoro-5-(2-{4-[3-(5-bromo-1H-3-indolyl)-propyl]-1-piperazinyl}-acetylamino)-N-(2-morpholin-4-yl-ethyl) Benzamide], the melting point is 73.2 to 74.5 °C. Besides, in data set [1], the Ki amounted to 765 ± 16 nM. Further, 100 µM produced 16% inhibition in data set [2]. In data set [3] (setting [4]), the Ki was 12.6 ± 0.42 nM.
`O=C(CN1CCN(CCCc2c[nH]c3ccc(Br)cc23)CC1)N1CCOc2ccc(F)cc21` [Compound 7o, 1-(6-Fluoro-2,3-dihydro-benzo[b][1,4]oxazin-4-yl)-2-{4-[3-(5-bromo-1H-3-indolyl)-propyl]-1-piperazinyl} ethanamide]: the melting point is 97.2 to 98.8 °C. This compound gave a Ki in data set [1] of 1150 ± 227 nM. The compound also showed an inhibition at 100 µM in data set [2] of 26%. For the same compound, the Ki in data set [3] (setting [5]) was 34.9 nM.
Consider `O=C(CN1CCN(CCCc2c[nH]c3ccc(F)cc23)CC1)Nc1ccc(F)c(C(=O)NCCN2CCOCC2)c1` [Compound 13c, 2-Fluoro-5-(2-{4-[3-(5-fluor-1H-3-indolyl)-propyl]-1-piperazinyl}-acetylamino)-N-(2-morpholin-4-yl-ethyl) Benzamide], for which the melting point lay in the range of 91.8 to 93.2 °C. This compound also yielded a Ki in data set [1] of 593 ± 30.2 nM. In data set [2], at 100 µM the inhibition was 28%. Also, the Ki in data set [3] (setting [4]) stood at 6.83 ± 0.19 nM.
On to `O=C(CN1CCN(CCCc2c[nH]c3ccc(F)cc23)CC1)N1CCOc2ccc(F)cc21` [Compound 7i, 1-(6-Fluoro-2,3-dihydro-benzo[b][1,4]oxazin-4-yl)-2-{4-[3-(5-fluoro-1H-3-indolyl)-propyl]-1-piperazinyl} ethanamide], for which the melting point was in the range of 166.8 to 168.1 °C. This compound also registered a Ki in data set [1] of 1680 ± 79 nM. In data set [2], the inhibition at 100 µM worked out at 0%. The Ki in data set [3] (setting [4]) stood at 7.51 ± 0.12 nM.
For `O=C(CN1CCN(CCCc2c[nH]c3ccc(F)cc23)CC1)N1CCOc2ccc(Cl)cc21` [Compound 7j, 1-(6-Chloro-2,3-dihydro-benzo[b][1,4]oxazin-4-yl)-2-{4-[3-(5-fluoro-1H-3-indolyl)-propyl]-1-piperazinyl} ethanamide] the same measures were 120.5 to 122.8 °C, 902 ± 4 nM, 20% and 12.3 ± 2.31 nM.
Compound `O=C(CN1CCN(CCCc2c[nH]c3ccccc23)CC1)Nc1ccc(F)c(C(=O)NCCN2CCOCC2)c1` [Compound 13k, 2-Fluoro-5-(2-{4-[3-(1H-3-indolyl)-propyl]-1-piperazinyl}-acetylamino)-N-(2-morpholin-4-yl-ethyl) Benzamide] registered a melting point of 69.7 to 71.5 °C. This compound also returned a Ki in data set [1] of 4170 ± 335 nM. In data set [2], this compound displayed an inhibition at 100 µM of 34%. Moreover, the Ki in data set [3] (setting [4]) is 26.8 ± 0.91 nM.
`O=C(CN1CCN(CCCc2c[nH]c3ccc(F)cc23)CC1)N1CCOc2ccc(Br)cc21` [Compound 7k, 1-(6-Bromo-2,3-dihydro-benzo[b][1,4]oxazin-4-yl)-2-{4-[3-(5-fluoro-1H-3-indolyl)-propyl]-1-piperazinyl} ethanamide] returned a melting point of 102.8 to 103.9 °C. Besides, the Ki in data set [1] is 1040 ± 232 nM. The compound also came in with an inhibition at 100 µM in data set [2] of 20%. Besides, the Ki in data set [3] (setting [4]) worked out at 5.63 ± 0.82 nM. For the same compound, the Ki in data set [3] (setting [5]) was 5.62 nM.
`O=C(CN1CCN(CCCc2c[nH]c3ccc(F)cc23)CC1)N1CCOc2cc(F)ccc21` [Compound 7h, 1-(7-Fluoro-2,3-dihydro-benzo[b][1,4]oxazin-4-yl)-2-{4-[3-(5-fluoro-1H-3-indolyl)-propyl]-1-piperazinyl} ethanamide]: the melting point lay within 168.1 to 169.9 °C. This compound also showed a Ki in data set [1] of 2320 ± 163 nM. Also, in data set [2], the inhibition at 100 µM is 0%. For the same compound, in data set [3] (setting [4]), the Ki stood at 7.61 ± 0.02 nM.
For `O=C(CN1CCN(CCCc2c[nH]c3ccc(Br)cc23)CC1)Nc1ccc(F)cc1C(=O)NCCN1CCOCC1` [Compound 13h, 5-Fluoro-2-(2-{4-[3-(5-bromo-1H-3-indolyl)-propyl]-1-piperazinyl}-acetylamino)-N-(2-morpholin-4-yl-ethyl) Benzamide] the same measures were 73.8 to 74.7 °C, 4700 ± 168 nM, 9.4% and 200 ± 14.5 nM.
For `O=C(CN1CCN(CCCc2c[nH]c3ccc(Br)cc23)CC1)N1CCOc2cc(F)ccc21` [Compound 7n, 1-(7-Fluoro-2,3-dihydro-benzo[b][1,4]oxazin-4-yl)-2-{4-[3-(5-bromo-1H-3-indolyl)-propyl]-1-piperazinyl} ethanamide], the melting point was in the range of 96.1 to 98.1 °C. The same compound came in with a Ki in data set [1] of 307 ± 6 nM. Also, the D2/SERT ratio in data set [1] (ratio of Ki at D2 receptor to Ki at SERT) was 3.6. The same compound displayed an inhibition at 100 µM in data set [2] of 23%. The Ki in data set [3] (setting [4]) was determined as 84.4 nM.
`O=C(CN1CCN(CCCc2c[nH]c3ccccc23)CC1)N1CCOc2ccc(Cl)cc21` [Compound 7d, 1-(6-Chloro-2,3-dihydro-benzo[b][1,4]oxazin-4-yl)-2-{4-[3-(1H-3-indolyl)-propyl]-1-piperazinyl} ethanamide] came in with a melting point of 135.3 to 136.1 °C. In data set [1], this compound yielded a Ki of 1260 ± 182 nM. Besides, in data set [2], the inhibition at 100 µM amounted to 18%. Besides, the Ki in data set [3] (setting [4]) stood at 81.4 ± 4.97 nM.
`O=C(CN1CCN(CCCc2c[nH]c3ccc(Br)cc23)CC1)N1CCOc2ccccc21` [Compound 7m, 1-(2,3-Dihydro-benzo[b][1,4]oxazin-4-yl)-2-{4-[3-(5-bromo-1H-3-indolyl)-propyl]-1-piperazinyl} ethanamide] showed a melting point of 90.5 to 92.4 °C. In data set [1], the Ki is 593 ± 62 nM. Further, the inhibition at 100 µM in data set [2] was 30%. Further, the Ki in data set [3] (setting [4]) came out at 50.2 ± 2.47 nM. Moreover, in data set [3] (setting [5]), the Ki was 50.1 nM.
Regarding `O=C(CN1CCN(CCCc2c[nH]c3ccc(F)cc23)CC1)N1CCOc2ccccc21` [Compound 7g, 1-(2,3-Dihydro-benzo[b][1,4]oxazin-4-yl)-2-{4-[3-(5-fluoro-1H-3-indolyl)-propyl]-1-piperazinyl} ethanamide], the melting point is 168.4 to 171.3 °C. In data set [1], this compound had a Ki of 2320 ± 64 nM. Besides, the inhibition at 100 µM in data set [2] came out at 41%. Moreover, in data set [3] (setting [4]), the Ki worked out at 9.63 ± 0.31 nM.
As for `O=C(CN1CCN(CCCc2c[nH]c3ccccc23)CC1)Nc1ccc(F)cc1C(=O)NCCN1CCOCC1` [Compound 13l, 5-Fluoro-2-(2-{4-[3-(1H-3-indolyl)-propyl]-1-piperazinyl}-acetylamino)-N-(2-morpholin-4-yl-ethyl) Benzamide], the melting point is 68.1 to 69.6 °C. For the same compound, the Ki in data set [1] is 2000 ± 34 nM. In data set [2], this compound had an inhibition at 100 µM of 34%. Further, the Ki in data set [3] (setting [4]) stood at 52.2 ± 3.24 nM.
Regarding `O=C(CN1CCN(CCCc2c[nH]c3ccccc23)CC1)N1CCOc2ccc(F)cc21` [Compound 7c, 1-(6-Fluoro-2,3-dihydro-benzo[b][1,4]oxazin-4-yl)-2-{4-[3-(1H-3-indolyl)-propyl]-1-piperazinyl} ethanamide], the melting point was in the range of 123.8 to 125.1 °C. Also, the Ki in data set [1] is 2390 ± 163 nM. This compound also came in with an inhibition at 100 µM in data set [2] of 40%. The Ki in data set [3] (setting [4]) was determined as 68.8 ± 1.02 nM.
Consider `O=C(CN1CCN(CCCc2c[nH]c3ccccc23)CC1)N1CCOc2cc(F)ccc21` [Compound 7b, 1-(7-Fluoro-2,3-dihydro-benzo[b][1,4]oxazin-4-yl)-2-{4-[3-(1H-3-indolyl)-propyl]-1-piperazinyl} ethanamide], for which the melting point lay in the range of 124 to 125.3 °C. The compound also had a Ki in data set [1] of 4740 ± 131 nM. This compound came in with an inhibition at 100 µM in data set [2] of 43%. Moreover, the Ki in data set [3] (setting [4]) came out at 181 ± 20 nM.
